The test system of one assay is autologous CD4+ T cells. Kind of assay: In vitro proliferation of autologous CD4+ T cells (tritiated thymidine). The assay is classed as cell-based, human. As to conditions: DCs incubated with mannan (1 mg/ml) before FVIII; FIG. 4a. As to the method: The DCs of Example 1 were incubated with mannan (1 mg/ml) for 30 min at 37° C. FVIII dialyzed against RPMI 1640 medium (Kogenate, Bayer) was added (40 μg/ml, 0.143 μM) for 2 hours. The cells were then washed and incubated with LPS (1 μg/0.5 million cells) in complete medium for 48 hours. The cells were then washed and cultured (RPMI 1640 medium, supplemented with 10% male human AB serum, in 96-well cell culture plates with a round base with 200 μl per well) with autologous CD4+ T cells obtained from the PBMC of the corresponding donor using the MACS cell isolation kit (Miltenyi Biotech, Bergisch Gladbach, Germany). The number of CD4+ T cells was kept constant in each well (100,000 cells/well), while the number of DCs varied (5,000, 10,000 and 15,000 DCs in triplicate), giving a T:DC cell ratio of 20:1, 10:1, 6.6:1.
After culture for 4 days, 0.5 μCi of tritiated thymidine was added to each well. The cells were harvested after 16 hours and the radioactivity incorporated was counted.

Assay [1] relates to D9E9 (T cell clone specific for FVIII). Kind of assay: In vitro activation of FVIII-specific T cell clone D9E9 (IFN-gamma production). The assay is classed as cell-based, human. As to the method: After washing, the DCs of Example 1 were resuspended in DMEM:F12 (1:1) medium containing 10% FCS and 10,000 DCs were introduced into each well of a 96-well cell culture plate with a round base. After incubation with mannan (1 mg/ml) in each well for 30 min, the DCs were cultured with 5,000 D9E9 (T cell clone specific for FVIII) in DMEM:F12 (1:1) medium containing 10% FCS and 20 U/ml of rhIL-2 with various doses of whole FVIII or FVIII-BDD (10, 8, 6, 4, 2 μg/ml) for 20 hours at 37° C. Like the D9E9 cells, the LE2E9 and BO2C11 lines of B cells transformed by EBV were cultured in the presence of 10 μg/ml of whole FVIII or FVIII-BDD. The control conditions were maintained in the absence of FVIII, D9E9 or DCs. As a negative control, hrFIX (Benefix, Baxter) was incubated with the cells at isomolar concentrations of FVIII. The supernatants were harvested at the end of the incubation period and tested for their production of IFNγ using the human IFN-γ Duo Set (DY285, R&D Systems) in accordance with the manufacturer's instructions.

In the next assay the target is binding of FVIII to VWF (Homo sapiens, UniProt P00451). The assay is described as follows: ELISA for binding of FVIII to VWF. As to conditions: FVIII preincubated with mannan (0.01 to 4 mg/ml); FIG. 5b. As to the method:
ELISA plates (Nunc, Roskilde, Denmark) were coated with VWF (VWF, Willefectin, LFB, Les Ulis, France) at 2 μg/ml per well in PBS (pH 7.4) at 37° C. for 1 hour. The plates were saturated with PBS containing 1% skimmed milk and 0.1% Tween 20 for 1 hour at 37° C. FVIII (0.3 μg/ml) was preincubated by itself or with mannan (0.01 to 4 mg/ml) or with BO2C11 (human monoclonal anti-FVIII IgG) (0.05 to 40 μg/ml) in a blocking buffer for 1 hour at 37° C. and then added to the wells coated with VWF and incubated for 1 hour at 37° C. A mouse monoclonal anti-FVIII IgG (mAb6) (3 μg/ml) was incubated at 37° C. for 1 hour. […] No binding of FVIII was observed on the wells which had not been coated.
A general note: In an ELISA, binding on a coated surface is turned into a signal by an enzyme label.

binding of FVIII to VWF, sequence (P00451 20-1667 limits assumed): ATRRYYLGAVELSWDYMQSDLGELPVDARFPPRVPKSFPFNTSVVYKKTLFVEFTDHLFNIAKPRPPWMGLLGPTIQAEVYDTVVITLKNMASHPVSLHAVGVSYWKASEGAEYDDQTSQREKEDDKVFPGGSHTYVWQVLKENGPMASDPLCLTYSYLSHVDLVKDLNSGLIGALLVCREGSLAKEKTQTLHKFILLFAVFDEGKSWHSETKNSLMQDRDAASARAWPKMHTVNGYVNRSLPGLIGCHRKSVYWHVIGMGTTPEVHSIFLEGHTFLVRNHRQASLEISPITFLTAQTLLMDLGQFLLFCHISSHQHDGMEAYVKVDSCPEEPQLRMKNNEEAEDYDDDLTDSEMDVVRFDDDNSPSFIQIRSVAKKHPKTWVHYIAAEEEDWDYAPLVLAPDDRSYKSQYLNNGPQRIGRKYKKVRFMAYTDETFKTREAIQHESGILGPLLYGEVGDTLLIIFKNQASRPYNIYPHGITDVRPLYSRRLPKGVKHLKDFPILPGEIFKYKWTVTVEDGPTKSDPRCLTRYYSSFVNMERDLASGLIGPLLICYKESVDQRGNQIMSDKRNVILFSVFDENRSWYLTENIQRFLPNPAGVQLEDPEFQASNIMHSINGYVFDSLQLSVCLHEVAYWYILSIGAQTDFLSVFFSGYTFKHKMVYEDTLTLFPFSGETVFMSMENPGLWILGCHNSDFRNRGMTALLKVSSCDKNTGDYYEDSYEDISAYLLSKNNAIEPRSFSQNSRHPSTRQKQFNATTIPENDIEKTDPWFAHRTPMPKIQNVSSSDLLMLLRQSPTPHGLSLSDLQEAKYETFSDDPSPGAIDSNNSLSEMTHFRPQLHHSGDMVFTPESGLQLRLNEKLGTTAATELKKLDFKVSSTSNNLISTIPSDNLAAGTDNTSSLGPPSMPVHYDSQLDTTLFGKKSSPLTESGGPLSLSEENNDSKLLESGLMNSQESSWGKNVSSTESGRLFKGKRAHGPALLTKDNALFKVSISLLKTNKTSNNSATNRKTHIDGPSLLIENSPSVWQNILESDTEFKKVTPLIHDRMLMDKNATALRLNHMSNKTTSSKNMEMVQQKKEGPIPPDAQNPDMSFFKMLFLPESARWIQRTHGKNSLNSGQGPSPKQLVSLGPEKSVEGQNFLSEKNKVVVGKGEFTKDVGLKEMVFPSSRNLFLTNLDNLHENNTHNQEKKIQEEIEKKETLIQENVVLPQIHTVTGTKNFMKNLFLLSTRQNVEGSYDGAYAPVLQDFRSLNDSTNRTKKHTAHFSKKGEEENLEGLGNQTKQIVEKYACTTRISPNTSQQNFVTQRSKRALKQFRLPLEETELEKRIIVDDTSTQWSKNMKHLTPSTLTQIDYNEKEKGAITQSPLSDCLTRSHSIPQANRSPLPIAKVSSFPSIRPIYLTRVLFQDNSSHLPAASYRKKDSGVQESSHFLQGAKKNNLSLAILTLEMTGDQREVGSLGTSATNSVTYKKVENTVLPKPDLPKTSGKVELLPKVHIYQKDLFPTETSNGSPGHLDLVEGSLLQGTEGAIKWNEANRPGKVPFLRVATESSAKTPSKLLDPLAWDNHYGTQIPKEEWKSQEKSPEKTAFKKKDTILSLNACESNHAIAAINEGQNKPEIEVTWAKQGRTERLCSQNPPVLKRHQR
binding of FVIII to VWF, sequence (P00451 1668-2351 limits assumed): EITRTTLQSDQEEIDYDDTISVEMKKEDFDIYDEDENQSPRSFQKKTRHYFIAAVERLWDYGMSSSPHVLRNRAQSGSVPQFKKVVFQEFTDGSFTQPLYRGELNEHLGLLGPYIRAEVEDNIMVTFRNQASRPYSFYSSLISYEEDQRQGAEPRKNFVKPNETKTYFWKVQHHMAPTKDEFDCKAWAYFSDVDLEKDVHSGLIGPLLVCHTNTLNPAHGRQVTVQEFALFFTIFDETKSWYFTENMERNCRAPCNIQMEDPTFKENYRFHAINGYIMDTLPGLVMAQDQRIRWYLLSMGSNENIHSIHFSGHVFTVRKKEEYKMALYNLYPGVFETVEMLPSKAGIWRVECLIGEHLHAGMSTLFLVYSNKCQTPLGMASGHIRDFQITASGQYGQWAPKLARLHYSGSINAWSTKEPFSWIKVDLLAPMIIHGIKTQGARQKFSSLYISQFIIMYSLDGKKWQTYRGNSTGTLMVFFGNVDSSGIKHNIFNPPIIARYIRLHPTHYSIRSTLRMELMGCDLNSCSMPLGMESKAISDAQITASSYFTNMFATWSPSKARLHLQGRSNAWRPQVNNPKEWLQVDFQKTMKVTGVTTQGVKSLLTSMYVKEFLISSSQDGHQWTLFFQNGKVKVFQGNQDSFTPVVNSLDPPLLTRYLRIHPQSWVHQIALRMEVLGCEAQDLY

On to mannan, for which the “proliferation of T cells” value in the assay on autologous CD4+ T cells is reported as “levels comparable to those of negative controls”. Further, in assay [1] (DCs preincubated with mannan (1 mg/ml), FIG. 4b (B)), the “inhibition of FVIII-induced activation of D9E9 cells” value is listed as “up to 84%”. For the same substance, the “activation of D9E9 cells by autologous B cells pulsed with FVIII, LE2E9” value in assay [1] (in presence of mannan, FIG. 4b (C)) was “does not prevent activation”. The “effect on interaction of FVIII with VWF” value at binding of FVIII to VWF is given as “does not interfere”.
